ChEMBL document CHEMBL1146822, “Adenine derived inhibitors of the molecular chaperone HSP90-SAR explained through multiple X-ray structures” (Bioorg Med Chem Lett, 2004)

System: HCT-116
Assay: Cellular activity against human colon tumor cell line, HCT116
Format: functional

Row | SMILES | GI50 [µM]
1 | C#CCCCn1c(Cc2cc(OC)c(OC)c(OC)c2Cl)nc2c(N)nc(F)nc21 | 3.9
2 | C#CCCCn1c(Cc2cc(OC)ccc2OC)nc2c(N)nc(F)nc21 | 3.3
3 | CCCCn1c(Cc2cc(OC)ccc2OC)nc2c(N)nc(F)nc21 | 3.4
